# Measurements as given in US20130209581A1, “IODINATED ACTIVATED CHARCOAL FOR TREATING SYMPTOMS OF DEPRESSION” (priority 2010, published 2013).
# How the values were obtained:
# [1] = system: symptoms caused by depression; assay: Self-administration of iodinated activated charcoal and its separate components by one patient with long-standing depression symptoms, with daily symptom recording and a Quality of life questionnaire; type: in vivo, human; conditions: 90 mg daily in a capsule, after 2 weeks
# Method: A person, has for some 20 years suffered from many symptoms, including chronic and severe mental fatigue in spite of 12 h sleep per night, psychological burnout, anxiety, lack of concentration, depressive mood, withdrawal from social situations, irritable bowel symptoms with constipation and/or diarrhea, anxiety, heart palpitations, pressure in the chest, reduced stamina and condition and a reduced sex drive. When asked to evaluate their subjective health status using a Quality of life questionnaire with a 1-10 scale where 1 is the worst possible and 10 is absolutely the best, they regularly marked 1 or 2. Their symptoms were interpreted as caused by depression, and they were treated with 5 different types of anti-depressants for a total of 17 years.
# Some time ago, they tested the mercury binding substance iodinated activated charcoal (IAC, custom made at PharmaLundensis according to Example 1). They took 1 g per day of IAC for two weeks, and recorded the symptoms they experienced daily, as well as filling in a Quality of life questionnaire. […] They felt better than they had felt for many years.
# After these two weeks, they wanted to clarify if the massive improvement in their health was caused by the IAC. […]
# [2] = system: animals suffering from the effects of iodine toxicity; conditions: animals (chicks) with iodine toxicity; cited from earlier work
# healthy volunteers = conditions: humans, cited from earlier work
Compound,Quality of life score [1],improvement of symptoms [1],effect on symptoms of iodine toxicity [2],no-effect level (healthy volunteers; healthy volunteers),tolerability (healthy volunteers)
II [elemental iodine],as bad as when they started taking the iodine capsules,no improvements,,,
"[Br-].[Na+] [Sodium bromide, sodium bromide]",,,helps to reverse the symptoms,4 mg/kg body weight,well tolerated
